Assay results taken from US6342219B1 (Board of Regents, The University of Texas System, priority 1999, dated 2002).

Assays:
[1] = test system: A673 rhabdomyosarcoma; experiment: In vivo tumor growth inhibition, newly implanted A673; set-up: species or system nu/nu mice
Procedure: FIG. 3A and FIG. 3B. […] FIG. 3A: 1×10^7 NCI-H358 NSCLC cells were injected subcutaneously into nu/nu mice on day 0. FIG. 3B: 5×10^6 A673 rhabdomyosarcoma cells were injected subcutaneously into nu/nu mice on day 0. Mice were injected i.p. with the indicated IgG on day 1 and 2 times/week thereafter. […] Tumors were measured 2-3 times per week. Mean and standard error is shown for the duration of the study in FIG. 3A, while data for the last day of the study (day 26) is shown in FIG. 3B.
Nu/nu mice were injected subcutaneously with either 1×10^7 NCI-H358 NSCLC cells or 5×10^6 A673 rhabdomyosarcoma cells on day 0. […] The tumors were then measured twice per wk for a period of approximately six wk for the NCI-H358 bearing mice and four wk for the A673 bearing mice. Tumor volume was calculated according to the formula: volume=L×W×H, where L=length, W=width, H=height.

[2] = test system: VEGF-mediated growth of ABAE cells; experiment: Endothelial cell growth assay (MTS); type: cell-based, bovine
Procedure: ABAE cells were grown in the presence of the various indicated antibodies and 0.5 nM VEGF. Growth after 4 days was determined calorimetrically by the enzymatic conversion of MTS (Owen's reagent) to a yellow formazan. […] Background was determined by growing cells without VEGF or antibody and was subtracted from the control and sample wells.
Adult bovine aortic endothelial (ABAE) cells were plated into 96-well tissue culture plates at 1500 cells/well and grown in the presence of 0.5 nM human VEGF with the addition of the various sample and control antibodies. Control wells received media with or without VEGF.
After 4 days of incubation, the cells were quantified by an MTS (3-(4,5-dimethylthiazol-2-yl)-5-(3-carboxylmethoxyphenyl)-2-(4-sulfophenyl)-2H-tetrazolium, inner salt) conversion assay, where MTS conversion to a formazan is proportional to cell number and can be followed by absorbance at 490 nm (Cell Titer 96 AQueous One Solution Cell Proliferation Assay, Promega, Madison, Wis.). The assay was performed according to the manufacturer's instructions.
Cell growth was estimated by subtracting the MTS conversion in cultures to which VEGF was not added. Results were expressed as a percentage of the MTS conversion in control cultures to which only VEGF was added (Buttke et al., 1993).

[3] = test system: NCI-H358 NSCLC and HT29 colon adenocarcinoma xenografts and normal organs; experiment: In vivo localization to human tumor xenografts in mice; set-up: species or system mouse; key to Immunohistochemical Reactivity, Heart / Immunohistochemical Reactivity, Lung / Immunohistochemical Reactivity, Liver / Immunohistochemical Reactivity, Kidney / Immunohistochemical Reactivity, Intestine / Immunohistochemical Reactivity, Spleen / Immunohistochemical Reactivity, Tumor: −, negative; +/−, very weak; 1+, weak; 2+, moderate; 3+, strong; 4+, very strong
Procedure: Tumors were grown subcutaneously in immunocompromised mice (NCI-H358 NSCLC in nu/nu mice and HT29 colon adenocarcinoma in SCID mice) until the tumor volume was approximately 1 cm^3. 100μg of unlabeled antibody for studies using SCID mice, or 100 μg of biotinylated antibody for studies using nude mice, was injected intravenously via a tail vein. Twenty four hours later, the mice were anesthetized, perfused with PBS, and tumor and organs including heart, lungs, liver, kidneys, intestines and spleen were collected and snap frozen in liquid nitrogen.
The tumor and organs from each mouse were sectioned on a cryostat and stained for antibody immunohistochemically as above, with the exception that sections from the nude mice were developed using peroxidase labeled streptavidin-biotin complex (Dako, Carpinteria, Calif.) and the sections from the SCID mice were developed using two peroxidase-conjugated secondary antibodies, a goat anti-mouse IgG+IgM followed by a rabbit anti-goat Ig.
Twenty-four hours later, the mice were sacrificed, exsanguinated and the tumors and tissues were removed.

[4] = test system: VEGF alone or VEGF associated with sFlk-1 (VEGF:Flk-1); experiment: Indirect and capture ELISA: reactivity with VEGF alone or VEGF:Flk-1; type: binding, human VEGF; mouse Flk-1
VEGF alone or VEGF associated with sFlk-1 (VEGF:Flk-1), sequence (P15692 27-191 isoform P15692-4 limits assumed): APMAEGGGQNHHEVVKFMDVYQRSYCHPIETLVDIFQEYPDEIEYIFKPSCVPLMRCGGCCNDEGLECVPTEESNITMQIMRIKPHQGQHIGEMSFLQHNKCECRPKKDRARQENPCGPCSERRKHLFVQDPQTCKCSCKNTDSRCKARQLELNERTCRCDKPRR
Procedure: The Flk-1/SEAP protein was produced and purified as described by Tessler et al. (1994). Basically, the extracellular domain of Flk-1 (sFlk-1) was produced in Spodoptera frugiperda (Sf9) cells and purified by immunoaffinity techniques utilizing a monoclonal anti-Flk-1 antibody (1A8). sFlk-1 was then biotinylated and bound on avidin-coated plates.
The reactivity was determined as described above for the initial screening.
A capture ELISA was also developed. In the capture ELISA, microtiter plates were coated overnight at 4° C. with 100 ng of the indicated antibody. […] Streptavidin conjugated to peroxidase (Kirkegaard & Perry Laboratories, Inc.), diluted 1:2000, was used as a second layer and developed.

[5] = test system: LS174T colon adenocarcinoma; experiment: Treatment of established LS174T tumors; set-up: species or system mice; conditions: mouse, in vivo
[6] = test system: NCI-H358 NSCLC tumors; experiment: Treatment of established NCI-H358 xenografts (FIG. 4); type: in vivo, nu/nu mice; conditions: 50-100 μg i.p. every 3-5 days, approximately 10 weeks
Procedure: FIG. 4. […] Mean tumor volume along with the SEM over 116 days is shown.
Male nu/nu mice bearing subcutaneous NCI-H358 tumors or HT1080 fibrosarcoma 200-400 mm^3 in size were injected i.p. with test or control antibodies. The NCI-H358 bearing mice were treated with 100 μg of antibodies per injection three times a week during the first week and twice a week during the second and third week. The mice were then switched to 50 μg per injection every five days. The HT1080 bearing mice were treated with 100 μg of the indicated antibody or saline every other day throughout the duration of the study. In both studies, mice were sacrificed when their tumors reached 2500 mm^3 in size or earlier if tumors began to ulcerate.
Doses were 50-100 μg every 3-5 days. […] In addition to measuring mean tumor volume (FIG. 4), photographs of the mice from each treatment group were also taken to show the differences in tumor size and appearance at the end of the study.

[7] = test system: guinea pig VEGF in line 10 guinea pig tumor sections; experiment: Immunohistochemistry, endothelial cell staining, guinea pig Line 10 tumor; type: binding; set-up: key: −, negative; +/−, very weak; 1+, weak; 2+, moderate; 3+, strong; 4+, very strong; conditions: acetone fixed frozen sections
Procedure: (§1) Guinea pig line 10 hepatocellular carcinoma tumor cells (obtained from Dr. Ronald Neuman, NIH, Bethesda, Md.) were grown in strain 2 guinea pigs (NCI, Bethesda, Md.). The human tumors NCI-H358 non-small cell lung carcinoma (NSCLC), NCI-H460 NSCLC (both obtained from Dr. Adi Gazdar, UT Southwestern, Dallas, Tex.), HT29 colon adenocarcinoma (American Type Culture Collection), and L540CY Hodgkin's lymphoma (obtained from Professor V. Diehl, Cologne, Germany) were grown as xenografts in CB17 SCID mice (Charles River, Wilmington, Mass.).
(§2) Tumors were snap frozen in liquid nitrogen and stored at −70° C. Frozen samples of tumor specimens from patients were obtained from the National Cancer Institute Cooperative Human Tissue Network (Southern Division, Birmingham, Ala.). Immunohistochemistry was performed as described by Burrows et al. (1995).

[8] = test system: denatured VEGF121 and VEGF165; experiment: Western blot analysis; type: binding, human; conditions: reducing and non-reducing conditions
denatured VEGF121 and VEGF165, sequence (P15692 207-320 limits assumed): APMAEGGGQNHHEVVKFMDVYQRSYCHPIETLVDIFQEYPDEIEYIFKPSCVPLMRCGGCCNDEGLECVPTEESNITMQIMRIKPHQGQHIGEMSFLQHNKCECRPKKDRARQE
Procedure: The nitrocellulose membrane was blocked using Sea-Block PP82-41 (East Coast Biologics, Berwick, Me.), and probed with primary antibodies using a mini-blotter apparatus (Immunetics, Cambridge, Mass.). The membranes were developed after incubation with the appropriate peroxidase-conjugated secondary antibody by ECL enhanced chemiluminescence.
Western blot analyses of anti-VEGF antibodies were conducted by separating VEGF165 in the presence of 5% FCS using SDS-PAGE on a 12% gel and analyzing by a standard western blotting protocol using ECL detection. The primary antibodies were incubated with the nitrocellulose membrane using a multi-lane mini-blotter apparatus.

[9] = test system: mouse VEGF in mouse 3LL Lewis Lung carcinoma tumor sections; experiment: Immunohistochemistry, endothelial cell staining, mouse 3LL tumor; type: binding; set-up: key: −, negative; +/−, very weak; 1+, weak; 2+, moderate; 3+, strong; 4+, very strong; conditions: acetone fixed frozen sections
Procedure: as §2
Tumors examined through immunohistochemistry were human tumors of various types from cancer patients, transplantable human tumor xenografts of various types grown in mice, guinea pig Line 10 tumor grown in guinea pig, and mouse 3LL tumor grown in mice (see legend to Table 3 for details).

[10] = test system: human tumor xenografts (NCI-H358, NCI-H460, HT29, L540); experiment: Immunohistochemistry, endothelial cell staining, human tumor xenografts; type: binding, human tumors grown in SCID mice; set-up: key: −, negative; +/−, very weak; 1+, weak; 2+, moderate; 3+, strong; 4+, very strong; conditions: acetone fixed frozen sections
Procedure: as §1, §2

[11] = 24 hours after i.v. antibody, 2C3 in NCI-H358 nu/nu mice, 3E7 and GV39M in HT29 SCID mice

Substance: 2C3: anti-VEGF monoclonal antibody, IgG2a, k, produced by hybridoma ATCC PTA 1595; blocks VEGF binding to VEGFR2 but not VEGFR1 [Clone 2C3]
- Final tumor volume, A673 ([1]; 100 μg i.p. 2 times per wk from day 1, controls approximately 1000 mm^3): approximately 150 mm^3
- Effect of lower doses on the growth of A673 tumors ([1]; 10 or 1 μg twice per wk): did slow the growth
- Blocks VEGF-induced proliferation [2]: Yes
- Immunohistochemical Reactivity, Heart [3, 11]: −
- Immunohistochemical Reactivity, Intestine [3, 11]: −
- Immunohistochemical Reactivity, Kidney [3, 11]: −
- Immunohistochemical Reactivity, Liver [3, 11]: −
- Immunohistochemical Reactivity, Lung [3, 11]: −
- Immunohistochemical Reactivity, Spleen [3, 11]: −
- Immunohistochemical Reactivity, Tumor ([3]; 24 hours after i.v. antibody, 3E7 and GV39M bound tumor vascular endothelium, 2C3 tumor stroma): 3+
- In vivo tumor localization pattern ([3]; CT = connective tissue, BV = blood vessels): Moderate to strong
- In vivo localization in the HT29 human tumor model ([3]; HT29): localized strongly to the connective tissue
- In vivo normal mouse tissue localization ([3]; mouse, in vivo): None detectable
- Predominant Reactivity [4]: VEGF
- Effect on growth of established LS174T tumors [5]: significantly slowed the growth
- Mean tumor volume at the end of the study, of the initial mean tumor volume [6]: 30%
- Endothelial Cell Staining, Guinea Pig Tumor (Line 10) [7]: −
- Reactivity with denatured VEGF on western blots [8]: react
- Endothelial Cell Staining, Mouse Tumor (3LL) [9]: −
- Endothelial Cell Staining, Xenograft (various) [10]: −
